These results are taken from BindingDB's records for doi:10.1021/jm00150a013 (1986).

As usually defined, the Ki is a measure of affinity in units of concentration, obtained from inhibition or displacement. Higher therefore signals a looser hold on the target.

The target in the test is Chymotrypsinogen A (Bos taurus) (UniProt P00766). The test can be described thus: Inhibitory activity against bovine Chymotrypsinogen expressed as inhibitory constant.

`CCCCc1c(C)oc(=O)c(CCCC)c1O` yielded an inhibition constant (Ki) of 1350 µM.
